Measurements as given in paper PMC7059125 (Bioorganic & medicinal chemistry letters, 2018).

Target: mushroom tyrosinase (Agaricus bisporus, UniProt C7FF04)
Assay: Tyrosinase inhibitory assay
Format: biochemical
[1] = percent inhibition at 500 μM, versus carvacrol (1)

mushroom tyrosinase, sequence (C7FF04 1-392): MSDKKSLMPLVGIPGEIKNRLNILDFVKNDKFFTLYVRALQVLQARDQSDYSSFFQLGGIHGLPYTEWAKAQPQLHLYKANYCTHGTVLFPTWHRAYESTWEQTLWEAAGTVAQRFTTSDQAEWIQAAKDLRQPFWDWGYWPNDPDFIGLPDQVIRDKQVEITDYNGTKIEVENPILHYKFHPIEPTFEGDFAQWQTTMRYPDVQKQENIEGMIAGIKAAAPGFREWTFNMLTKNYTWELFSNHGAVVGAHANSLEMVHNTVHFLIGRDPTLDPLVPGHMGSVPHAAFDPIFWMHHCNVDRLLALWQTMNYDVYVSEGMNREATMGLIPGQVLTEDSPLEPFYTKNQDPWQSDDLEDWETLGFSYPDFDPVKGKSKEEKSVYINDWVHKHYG

CCOc1cc(C(C)C)ccc1C [Compound 3, ethyl carvacrol] was tested, and the “fold increase in activity relative to carvacrol” value [1] was 1.6 fold.

With CCOc1cc(C(C)C)c(C(=O)CCC(=O)O)cc1C [Compound 5] the “fold decrease in activity relative to carvacrol” value [1] was 2.1 fold.

CCCCOC(=O)CCC(=O)c1cc(C(C)C)c(OCC)cc1C [Compound 18] showed an inhibition at 500 µM of 100 ± 3.9%.
